From ChEMBL document CHEMBL1134749, “Synthesis and structure-activity relationships of 5-substituted pyridine analogues of 3” (Bioorg Med Chem Lett, 2001)
pEC50, pIC50, pKi: −log10 of the molar value.

The compounds below were run against Nicotinic acetylcholine receptor alpha3/betaX (Homo sapiens) (UniProt P11230+P17787+P30926+P32297+Q05901) (assay: Antagonistic activity against Nicotinic acetylcholine receptor (alpha3-betaX subunit) in IMR 32 cell line using 100 uM of (-)-nicotine as agonist).
Assay type: functional, cell-based

Row | SMILES | Max efficacy
1 | CN1CCC[C@H]1COc1cncc(-c2cncnc2)c1 | 38.9%

Each compound was assayed against Nicotinic acetylcholine receptor alpha3/betaX (assay: (§1) Antagonistic activity against neuronal nicotinic acetylcholine receptor (alpha3-betaX subunit) in IMR 32 cell line using 100 uM of (-)-nicotine as agonist).
Assay type: functional, cell-based, Homo sapiens

Row | SMILES | pEC50
2 | CN1CCC[C@H]1COc1cncc(-c2cncnc2)c1 | 4.49

The compounds below were run against Nicotinic acetylcholine receptor alpha3/betaX (assay: as §1).
Assay type: functional, cell-based

Row | SMILES | pIC50
3 | COc1ccc(-c2cncc(OC[C@@H]3CCCN3C)c2)cc1 | 5.16
4 | CN1CCC[C@H]1COc1cncc(-c2ccco2)c1 | 5.10
5 | Cc1ccc(C#Cc2cncc(OC[C@@H]3CCCN3C)c2)cc1 | 5.82
6 | CN1CCC[C@H]1COc1cncc(-c2cccs2)c1 | 5.77
7 | CN1CCC[C@H]1COc1cncc(-c2cnc3ccccc3c2)c1 | 5.29
8 | CN1CCC[C@H]1COc1cncc(-c2ccc(Cl)cc2Cl)c1 | 6.05
9 | CN1CCC[C@H]1COc1cncc(/C=C/c2ccncc2)c1 | 5.12
10 | Cc1ccc(-c2cncc(OC[C@@H]3CCCN3C)c2)cc1 | 6.10
11 | CN1CCC[C@H]1COc1cncc(-c2ccc(Cl)cc2)c1 | 5.70
12 | CN1CCC[C@H]1COc1cncc(-c2ccc3ccccc3c2)c1 | 5.47
13 | CN1CCC[C@H]1COc1cncc(-c2cccc3ccccc23)c1 | 6.16
14 | CN1CCC[C@H]1COc1cncc(-c2ccccc2C=O)c1 | 5.20
15 | CN1CCC[C@H]1COc1cncc(-c2ccc(F)cc2)c1 | 5.19
16 | CN1CCC[C@H]1COc1cncc(/C=C/c2ccccc2)c1 | 5.32
17 | CN1CCC[C@H]1COc1cncc(-c2cccc(N)c2)c1 | 5.16
18 | CN1CCC[C@H]1COc1cncc(-c2cc3ccccc3n2C)c1 | 5.21
19 | CN1CCC[C@H]1COc1cncc(C#Cc2ccccc2)c1 | 6.10
20 | CN1CCC[C@H]1COc1cncc(-c2cccc([N+](=O)[O-])c2)c1 | 5.63
21 | CN1CCC[C@H]1COc1cncc(CCc2ccccc2)c1 | 5.96
22 | CN1CCC[C@H]1COc1cncc(-c2cc(C(F)(F)F)cc(C(F)(F)F)c2)c1 | 5.63
23 | Cc1ccccc1-c1cncc(OC[C@@H]2CCCN2C)c1 | 5.90
24 | CN1CCC[C@H]1COc1cncc(-c2cc3ccccc3o2)c1 | 5.54
25 | CN1CCC[C@H]1COc1cncc(-c2ccc(C(F)(F)F)cc2)c1 | 5.24
26 | CN1CCC[C@H]1COc1cncc(-c2cccnc2)c1 | 4.61
27 | CN1CCC[C@H]1COc1cncc(CCc2ccncc2)c1 | 5.20
28 | CN1CCC[C@H]1COc1cncc(-c2ccccc2)c1 | 5.29
29 | CN1CCC[C@H]1COc1cncc(-c2ccc(F)c(Cl)c2)c1 | 5.14

What follows are compounds tested against Neuronal acetylcholine receptor; alpha4/beta2 (Rattus norvegicus, UniProt P09483+P12390) (assay: In vitro ability to displace [3H](-)-cytisine binding to whole rat brain membranes at Nicotinic acetylcholine receptor alpha4-beta2).
Neuronal acetylcholine receptor; alpha4/beta2, sequence (P09483 whole entry): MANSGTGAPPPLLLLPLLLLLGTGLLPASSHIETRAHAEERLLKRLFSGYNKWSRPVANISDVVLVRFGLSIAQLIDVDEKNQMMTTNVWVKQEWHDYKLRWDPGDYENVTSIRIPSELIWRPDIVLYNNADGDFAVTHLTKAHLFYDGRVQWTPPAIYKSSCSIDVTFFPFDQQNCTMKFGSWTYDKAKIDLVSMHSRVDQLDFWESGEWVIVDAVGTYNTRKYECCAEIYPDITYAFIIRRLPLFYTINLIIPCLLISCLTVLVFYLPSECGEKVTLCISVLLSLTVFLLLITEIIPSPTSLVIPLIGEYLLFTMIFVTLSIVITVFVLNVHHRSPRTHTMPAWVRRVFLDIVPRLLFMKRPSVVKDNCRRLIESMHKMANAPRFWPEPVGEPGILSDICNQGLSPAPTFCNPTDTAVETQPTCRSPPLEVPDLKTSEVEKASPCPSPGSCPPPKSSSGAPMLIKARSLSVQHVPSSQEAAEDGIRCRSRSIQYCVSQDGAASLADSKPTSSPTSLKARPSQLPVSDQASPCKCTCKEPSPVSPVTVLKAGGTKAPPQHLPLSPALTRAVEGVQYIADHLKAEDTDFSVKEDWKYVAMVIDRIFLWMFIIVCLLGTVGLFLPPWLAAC
Neuronal acetylcholine receptor; alpha4/beta2, sequence (P12390 whole entry): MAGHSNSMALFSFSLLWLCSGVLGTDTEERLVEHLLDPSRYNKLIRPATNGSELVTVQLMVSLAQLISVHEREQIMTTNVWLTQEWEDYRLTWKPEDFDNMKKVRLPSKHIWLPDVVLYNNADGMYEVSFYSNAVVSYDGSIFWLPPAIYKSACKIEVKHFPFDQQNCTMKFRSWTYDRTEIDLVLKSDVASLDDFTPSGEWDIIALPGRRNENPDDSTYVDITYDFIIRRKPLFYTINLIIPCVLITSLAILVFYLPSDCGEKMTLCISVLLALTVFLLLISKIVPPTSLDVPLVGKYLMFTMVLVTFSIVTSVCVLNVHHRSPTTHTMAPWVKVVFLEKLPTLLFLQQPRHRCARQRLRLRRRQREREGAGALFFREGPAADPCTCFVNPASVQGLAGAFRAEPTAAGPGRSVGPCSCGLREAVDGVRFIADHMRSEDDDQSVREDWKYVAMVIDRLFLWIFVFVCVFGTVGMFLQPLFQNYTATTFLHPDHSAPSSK
Set-up: species or system Membrane

Row | SMILES | pKi
30 | CN1CCC[C@H]1COc1cncc(-c2cncnc2)c1 | 9.43
31 | Cc1ccc(C#Cc2cncc(OC[C@@H]3CCCN3C)c2)cc1 | 9.51
32 | CN1CCC[C@H]1COc1cncc(/C=C/c2ccncc2)c1 | 9.92
33 | CN1CCC[C@H]1COc1cncc(-c2cc3ccccc3o2)c1 | 9.82
